# Active and inactive are the calls of the source.
# Key:
# [1] = molecular target: T1, Neuropeptides B/W receptor type 1 (Homo sapiens, UniProt P48145); assay: Fluorescence-based dose response cell-based high throughput screening assay to identify antagonists of the G-protein coupled receptor 7 (GPR7). [Related pubchem assays: 1952 (Screening assay (GPR7 antagonists).), 1880 (Summary AID.)]; format: functional
# T1 sequence (P48145 whole entry): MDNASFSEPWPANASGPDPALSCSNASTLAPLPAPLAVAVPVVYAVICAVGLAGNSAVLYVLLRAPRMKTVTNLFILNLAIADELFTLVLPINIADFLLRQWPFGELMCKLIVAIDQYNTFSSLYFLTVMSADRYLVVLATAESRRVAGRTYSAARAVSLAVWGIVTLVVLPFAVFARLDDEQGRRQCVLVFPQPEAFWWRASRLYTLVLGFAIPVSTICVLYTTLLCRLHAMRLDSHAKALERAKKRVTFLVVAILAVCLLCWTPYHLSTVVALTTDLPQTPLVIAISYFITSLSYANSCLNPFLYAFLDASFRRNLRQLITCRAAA
# [2] = molecular target: Melanin-concentrating hormone receptor 1 (Homo sapiens, UniProt Q99705); assay: Fluorescence-based counterscreen for antagonists of the G-protein coupled receptor 7 (GPR7): cell-based high throughput dose response assay to identify antagonists of the melanin-concentrating hormone receptor 1 (MCHR1).; format: functional
# [3] = inhibitors of intracellular T. cruzi replication, confirmation, NIH3T3 host cells, beta-gal luminescence (AID 2044); format: functional, cell-based;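 also: intracellular parasites grown in NIH/3T3 mouse fibroblasts as host cells; luminescent beta-galactosidase reporter signal from transgenic T. cruzi replicating inside host cells; inhibitors lower the luminescence signal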
# [4] = cytotoxicity toward NIH3T3 fibroblasts, dose response, counter-screen, cell-based, ATP luminescence, mouse fibroblasts (AID 2010); format: functional;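 also: cells exposed to compound for about 90 hours before reading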
# [5] = A cytotoxicity screen of small molecule inhibitors of the PhoP region in Salmonella typhi identified in the primary screen. [Related pubchem assays: 1850, 1864, 1985 ]; format: functional
# [6] = molecular target: Peroxisome proliferator-activated receptor gamma/Nuclear receptor coactivator 1 (Homo sapiens, UniProt P37231); assay: TR-FRET dose response biochemical High Throughput Screening assay for agonists of the steroid receptor coactivator 1 (SRC-1) recruitment by the peroxisome proliferator-activated receptor gamma (PPAR gamma): non-selective agonists. [Related pubchem assays (depositor defined):AID1300, AID1808, AID504735, AID631]; format: protein assay
# [7] = molecular target: Peroxisome proliferator-activated receptor gamma/Nuclear receptor coactivator 3 (Homo sapiens, UniProt P37231); assay: TR-FRET dose response biochemical High Throughput Screening assay for agonists of the steroid receptor coactivator 3 (SRC-3) recruitment by the peroxisome proliferator-activated receptor gamma (PPAR gamma): non-selective agonists. [Related pubchem assays: 1301 (Confirmation screen.), 1048 (Primary screen.)]; format: functional
# [8] = molecular target: Peroxisome proliferator-activated receptor gamma/Nuclear receptor coactivator 2 (Homo sapiens, UniProt P37231); assay: TR-FRET dose response biochemical High Throughput Screening assay for agonists of the steroid receptor coactivator 2 (SRC-2) recruitment by the peroxisome proliferator-activated receptor gamma (PPAR gamma): non-selective agonists. [Related pubchem assays: 1297, 1032 ]; format: functional
# [9] = cytotoxicity in HEK-293T cells, dose response, cytotoxicity control for BCR NF-kB inhibitor project, luminescence, B-cell screen hits (AID 489021); format: functional, cell-based;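 also: HEK-293T cells carrying an NF-kB luciferase reporter; cells exposed to compound for about 14 hours before viability readout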
# [10] = molecular target: Glyceraldehyde-3-phosphate dehydrogenase (Homo sapiens, UniProt P04406)
# [11] = molecular target: T2, Alkaline phosphatase, tissue-nonspecific isozyme (Homo sapiens, UniProt P05186); assay: human TNAP enzyme inhibitors, SAR follow-up, biochemical, luminescent, dose response (AID 1056)
# T2 sequence (P05186 whole entry): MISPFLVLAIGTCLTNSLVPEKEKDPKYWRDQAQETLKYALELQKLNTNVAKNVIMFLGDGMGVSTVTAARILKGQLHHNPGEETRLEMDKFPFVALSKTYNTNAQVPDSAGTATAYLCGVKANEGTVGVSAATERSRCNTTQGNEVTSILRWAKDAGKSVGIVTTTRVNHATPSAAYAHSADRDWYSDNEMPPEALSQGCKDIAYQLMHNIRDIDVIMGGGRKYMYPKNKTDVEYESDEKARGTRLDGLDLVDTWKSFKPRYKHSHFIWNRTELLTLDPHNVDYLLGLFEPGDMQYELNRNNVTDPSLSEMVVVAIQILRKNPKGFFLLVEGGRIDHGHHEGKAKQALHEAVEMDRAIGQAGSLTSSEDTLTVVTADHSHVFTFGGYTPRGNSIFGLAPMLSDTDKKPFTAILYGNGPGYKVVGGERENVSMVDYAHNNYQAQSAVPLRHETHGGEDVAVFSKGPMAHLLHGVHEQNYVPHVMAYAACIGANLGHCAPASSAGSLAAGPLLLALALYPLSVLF
# Aminopeptidase N = molecular target: T3, Aminopeptidase N (Plasmodium falciparum FcB1/Columbia, UniProt O96935); assay: P. falciparum M1AAP inhibitors, biochemical, fluorogenic H-Leu-NHMec substrate, 1536-well (AID 1445); parameters: species or system Plasmodium falciparum 3D7, 3D7
# T3 sequence (O96935 whole entry): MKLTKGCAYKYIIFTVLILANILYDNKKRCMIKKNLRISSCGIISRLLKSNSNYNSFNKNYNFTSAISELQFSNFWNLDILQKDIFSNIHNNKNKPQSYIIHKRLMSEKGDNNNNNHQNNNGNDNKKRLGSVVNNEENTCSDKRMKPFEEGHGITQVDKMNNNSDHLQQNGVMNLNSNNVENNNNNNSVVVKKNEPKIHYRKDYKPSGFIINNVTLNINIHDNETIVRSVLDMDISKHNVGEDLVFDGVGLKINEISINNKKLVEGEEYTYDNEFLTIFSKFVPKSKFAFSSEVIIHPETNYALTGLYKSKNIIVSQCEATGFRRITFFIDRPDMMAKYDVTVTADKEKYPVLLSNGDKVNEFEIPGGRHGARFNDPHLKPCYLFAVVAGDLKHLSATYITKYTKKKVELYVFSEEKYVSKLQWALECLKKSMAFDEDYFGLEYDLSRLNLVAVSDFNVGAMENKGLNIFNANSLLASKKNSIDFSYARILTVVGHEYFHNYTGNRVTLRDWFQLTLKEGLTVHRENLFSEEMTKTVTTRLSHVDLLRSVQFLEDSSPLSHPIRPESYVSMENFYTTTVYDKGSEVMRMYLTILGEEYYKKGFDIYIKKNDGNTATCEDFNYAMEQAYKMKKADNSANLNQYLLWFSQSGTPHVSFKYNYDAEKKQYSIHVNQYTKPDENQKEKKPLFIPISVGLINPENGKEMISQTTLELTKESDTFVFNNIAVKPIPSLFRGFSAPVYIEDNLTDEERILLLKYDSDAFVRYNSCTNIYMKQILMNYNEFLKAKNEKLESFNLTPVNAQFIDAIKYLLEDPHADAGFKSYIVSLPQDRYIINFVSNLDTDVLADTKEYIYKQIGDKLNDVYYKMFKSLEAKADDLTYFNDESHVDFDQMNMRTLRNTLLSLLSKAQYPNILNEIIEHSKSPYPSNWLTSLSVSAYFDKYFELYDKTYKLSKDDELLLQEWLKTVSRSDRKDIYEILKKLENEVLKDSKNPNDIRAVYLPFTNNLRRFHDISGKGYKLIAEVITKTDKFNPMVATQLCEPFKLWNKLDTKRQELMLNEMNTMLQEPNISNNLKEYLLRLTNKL
# [12] = molecular target: DNA dC->dU-editing enzyme APOBEC-3A (Homo sapiens, UniProt P31941); assay: Dose Response confirmation of small molecule APOBEC3A DNA Deaminase Inhibitors via a fluorescence-based single-stranded DNA deaminase assay. [Related pubchem assays (depositor defined):AID493011, AID493024]; format: functional
# [13] = molecular target: DNA dC->dU-editing enzyme APOBEC-3G (Homo sapiens, UniProt Q9HC16); format: functional;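 also: Dose-response counterscreen measuring inhibition of APOBEC3G DNA deaminase activity, run while confirming APOBEC3A inhibitors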
# [14] = HEp-2 cell cytotoxicity, dose response, cytotoxicity control for RSV inhibitor project, HTS (AID 2410); format: functional; settings: human respiratory syncytial virus
# [15] = molecular target: T4, Heat shock factor protein 1 (Mus musculus, UniProt P38532); assay: HSF1 potentiators in luciferase reporter cells, confirmation, cell-based, NIH3T3, luminescence, dose retest (AID 435004); format: functional;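 also: stress induced by proteasome inhibitor MG132 added 30 min after compound; luciferase reporter driven by HSF1 response element in NIH3T3 cells; actives raise luminescence as potentiators of the MG132 stress response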
# T4 sequence (P38532 whole entry): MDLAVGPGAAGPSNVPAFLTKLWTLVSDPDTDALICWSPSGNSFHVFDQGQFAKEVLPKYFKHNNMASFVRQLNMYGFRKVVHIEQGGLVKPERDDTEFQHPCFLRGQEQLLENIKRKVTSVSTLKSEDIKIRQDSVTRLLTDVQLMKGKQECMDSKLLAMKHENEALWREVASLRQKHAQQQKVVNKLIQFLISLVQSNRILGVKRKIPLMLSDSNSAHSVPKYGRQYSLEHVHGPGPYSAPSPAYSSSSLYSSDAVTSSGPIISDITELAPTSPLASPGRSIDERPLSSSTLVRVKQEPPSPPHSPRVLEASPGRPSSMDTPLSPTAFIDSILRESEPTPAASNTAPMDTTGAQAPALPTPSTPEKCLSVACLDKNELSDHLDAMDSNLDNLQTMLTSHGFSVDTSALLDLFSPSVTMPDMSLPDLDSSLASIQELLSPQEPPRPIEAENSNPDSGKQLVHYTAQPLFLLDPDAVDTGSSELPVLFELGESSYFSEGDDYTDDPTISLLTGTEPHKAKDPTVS
# cells [16] = format: functional, cell-based
# cells [17] = format: functional, cell-based; remark: listed apart in the source
# Nonstructural protein 1 = Nonstructural protein 1 (Influenza A virus, UniProt Q194T2); format: functional, Influenza A virus (A/California/07/2009(H1N1))
# [18] = molecular target: T5, Microphthalmia-associated transcription factor (Homo sapiens, UniProt O75030); assay: TRPM1 promoter luciferase signal decrease, dose response, MITF inhibitor project, cell-based, SK-MEL-5, cherry-picked, set 3 (AID 493073); format: functional
# T5 sequence (O75030 whole entry): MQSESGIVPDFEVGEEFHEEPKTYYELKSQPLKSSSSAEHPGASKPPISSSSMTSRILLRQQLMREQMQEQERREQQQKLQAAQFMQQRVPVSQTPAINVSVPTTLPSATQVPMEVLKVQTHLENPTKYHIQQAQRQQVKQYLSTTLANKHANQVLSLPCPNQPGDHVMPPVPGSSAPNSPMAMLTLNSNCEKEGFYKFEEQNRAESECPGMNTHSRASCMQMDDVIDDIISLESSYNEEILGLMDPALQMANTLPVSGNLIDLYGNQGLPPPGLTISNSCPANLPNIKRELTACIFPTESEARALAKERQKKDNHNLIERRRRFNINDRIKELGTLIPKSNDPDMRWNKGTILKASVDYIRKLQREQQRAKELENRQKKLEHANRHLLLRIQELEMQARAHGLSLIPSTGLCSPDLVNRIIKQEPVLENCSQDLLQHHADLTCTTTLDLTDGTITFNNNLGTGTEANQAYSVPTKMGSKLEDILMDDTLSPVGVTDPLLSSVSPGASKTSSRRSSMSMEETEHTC
# [19] = microbe, parasite or virus in culture; format: functional; settings: Mycobacterium tuberculosis
# [20] = Luminescence-based dose response cell-based high throughput screening assay for cytotoxic compounds using the IEC-6 intestinal epithelial cell line. [Related pubchem assays: 1858 (Summary AID.), 1825 (Counterscreen.), 1907 (Confirmation screen.)]; format: functional
# Vero = assay: cells; format: functional; settings: Chlorocebus sabaeus
# Chain of Glyceraldehyde-3-phosphate dehydrogenase (P04406 whole entry): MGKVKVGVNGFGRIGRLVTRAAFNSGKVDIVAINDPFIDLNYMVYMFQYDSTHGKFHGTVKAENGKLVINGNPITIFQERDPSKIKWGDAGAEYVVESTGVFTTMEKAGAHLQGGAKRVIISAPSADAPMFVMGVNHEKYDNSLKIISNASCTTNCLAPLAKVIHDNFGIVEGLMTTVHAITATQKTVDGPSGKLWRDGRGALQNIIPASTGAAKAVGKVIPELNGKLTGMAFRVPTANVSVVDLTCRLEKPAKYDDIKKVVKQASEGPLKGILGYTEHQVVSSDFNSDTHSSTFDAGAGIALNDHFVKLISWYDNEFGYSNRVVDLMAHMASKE
# Chain of Melanin-concentrating hormone receptor 1 (Q99705 whole entry): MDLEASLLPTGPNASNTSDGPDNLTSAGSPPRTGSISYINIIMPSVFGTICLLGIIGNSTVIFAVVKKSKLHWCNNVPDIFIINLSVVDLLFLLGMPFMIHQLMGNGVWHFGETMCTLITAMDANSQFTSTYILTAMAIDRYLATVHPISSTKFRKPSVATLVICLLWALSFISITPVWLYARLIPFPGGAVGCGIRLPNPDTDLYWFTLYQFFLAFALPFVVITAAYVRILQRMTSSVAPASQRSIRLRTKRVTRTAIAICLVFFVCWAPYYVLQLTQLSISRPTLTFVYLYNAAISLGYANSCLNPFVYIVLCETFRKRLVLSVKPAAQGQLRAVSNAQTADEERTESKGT
# Chain of Nonstructural protein 1 (Q194T2 whole entry): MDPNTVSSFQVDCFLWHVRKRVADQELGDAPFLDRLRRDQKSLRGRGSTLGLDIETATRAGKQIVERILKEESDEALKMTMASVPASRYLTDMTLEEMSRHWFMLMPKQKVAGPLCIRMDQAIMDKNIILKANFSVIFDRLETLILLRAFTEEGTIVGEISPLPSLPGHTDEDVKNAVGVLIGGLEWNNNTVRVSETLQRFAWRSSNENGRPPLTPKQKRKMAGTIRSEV
# Chain of DNA dC->dU-editing enzyme APOBEC-3A (P31941 whole entry): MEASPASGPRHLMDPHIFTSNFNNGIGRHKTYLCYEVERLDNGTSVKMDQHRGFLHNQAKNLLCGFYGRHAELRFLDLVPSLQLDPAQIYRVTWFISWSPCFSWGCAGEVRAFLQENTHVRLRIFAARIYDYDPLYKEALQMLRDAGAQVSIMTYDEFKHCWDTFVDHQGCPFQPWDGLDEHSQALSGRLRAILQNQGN
# Chain of Peroxisome proliferator-activated receptor gamma/Nuclear receptor coactivator 3 (P37231 whole entry): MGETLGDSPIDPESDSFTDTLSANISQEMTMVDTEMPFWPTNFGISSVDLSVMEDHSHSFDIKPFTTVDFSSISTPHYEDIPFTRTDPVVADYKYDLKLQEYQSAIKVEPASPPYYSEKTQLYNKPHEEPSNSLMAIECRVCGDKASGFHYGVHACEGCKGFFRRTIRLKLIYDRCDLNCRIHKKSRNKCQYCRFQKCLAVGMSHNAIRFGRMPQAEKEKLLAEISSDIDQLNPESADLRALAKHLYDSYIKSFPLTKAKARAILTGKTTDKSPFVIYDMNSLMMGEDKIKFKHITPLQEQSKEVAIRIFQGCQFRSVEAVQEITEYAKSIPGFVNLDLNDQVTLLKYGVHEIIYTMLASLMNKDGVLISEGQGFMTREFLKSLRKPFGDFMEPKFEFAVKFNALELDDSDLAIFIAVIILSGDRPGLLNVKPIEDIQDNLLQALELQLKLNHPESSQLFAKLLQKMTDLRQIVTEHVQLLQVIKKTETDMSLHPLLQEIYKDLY
# Chain of Peroxisome proliferator-activated receptor gamma/Nuclear receptor coactivator 3 (Q9Y6Q9 whole entry, further chain): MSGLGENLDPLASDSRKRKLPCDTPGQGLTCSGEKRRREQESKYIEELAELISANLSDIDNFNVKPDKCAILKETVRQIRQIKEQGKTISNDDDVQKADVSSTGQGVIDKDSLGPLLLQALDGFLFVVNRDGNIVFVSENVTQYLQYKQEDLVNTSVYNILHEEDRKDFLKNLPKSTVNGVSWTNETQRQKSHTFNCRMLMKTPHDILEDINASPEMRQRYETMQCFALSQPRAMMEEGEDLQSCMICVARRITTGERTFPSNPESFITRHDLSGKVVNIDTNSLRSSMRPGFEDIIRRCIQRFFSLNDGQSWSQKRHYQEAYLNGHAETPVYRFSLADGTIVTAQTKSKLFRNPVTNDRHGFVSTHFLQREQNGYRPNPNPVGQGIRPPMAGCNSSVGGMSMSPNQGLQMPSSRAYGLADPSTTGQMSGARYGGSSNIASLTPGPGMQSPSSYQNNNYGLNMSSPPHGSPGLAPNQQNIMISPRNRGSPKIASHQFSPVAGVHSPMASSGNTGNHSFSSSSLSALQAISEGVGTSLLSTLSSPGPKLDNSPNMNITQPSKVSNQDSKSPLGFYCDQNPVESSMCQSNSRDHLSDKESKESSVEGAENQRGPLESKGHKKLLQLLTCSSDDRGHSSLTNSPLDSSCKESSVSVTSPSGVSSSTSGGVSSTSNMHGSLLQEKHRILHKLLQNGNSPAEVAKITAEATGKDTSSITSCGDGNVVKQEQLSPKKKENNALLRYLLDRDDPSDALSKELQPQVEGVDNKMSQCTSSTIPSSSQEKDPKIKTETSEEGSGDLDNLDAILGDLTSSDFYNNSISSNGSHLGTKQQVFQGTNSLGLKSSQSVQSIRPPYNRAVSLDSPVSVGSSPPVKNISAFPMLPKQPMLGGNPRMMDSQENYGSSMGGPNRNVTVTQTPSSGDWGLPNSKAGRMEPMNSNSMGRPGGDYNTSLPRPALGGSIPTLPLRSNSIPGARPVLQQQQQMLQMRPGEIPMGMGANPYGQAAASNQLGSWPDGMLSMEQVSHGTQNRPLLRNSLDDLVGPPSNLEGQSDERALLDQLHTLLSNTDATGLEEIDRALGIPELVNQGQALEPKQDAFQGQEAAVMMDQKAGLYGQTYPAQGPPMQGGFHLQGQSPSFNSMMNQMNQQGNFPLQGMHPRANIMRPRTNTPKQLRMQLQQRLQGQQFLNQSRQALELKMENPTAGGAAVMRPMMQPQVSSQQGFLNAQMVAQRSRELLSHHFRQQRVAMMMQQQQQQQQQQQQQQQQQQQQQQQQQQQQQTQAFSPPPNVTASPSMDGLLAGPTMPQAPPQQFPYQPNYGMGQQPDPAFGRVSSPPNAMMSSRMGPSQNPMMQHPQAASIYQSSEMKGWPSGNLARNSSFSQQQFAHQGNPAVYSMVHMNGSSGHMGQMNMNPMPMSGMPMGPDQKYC
# Chain of Peroxisome proliferator-activated receptor gamma/Nuclear receptor coactivator 1 (P37231 whole entry): as the sequence (P37231 whole entry) above
# Chain of Peroxisome proliferator-activated receptor gamma/Nuclear receptor coactivator 1 (Q15788 whole entry, further chain): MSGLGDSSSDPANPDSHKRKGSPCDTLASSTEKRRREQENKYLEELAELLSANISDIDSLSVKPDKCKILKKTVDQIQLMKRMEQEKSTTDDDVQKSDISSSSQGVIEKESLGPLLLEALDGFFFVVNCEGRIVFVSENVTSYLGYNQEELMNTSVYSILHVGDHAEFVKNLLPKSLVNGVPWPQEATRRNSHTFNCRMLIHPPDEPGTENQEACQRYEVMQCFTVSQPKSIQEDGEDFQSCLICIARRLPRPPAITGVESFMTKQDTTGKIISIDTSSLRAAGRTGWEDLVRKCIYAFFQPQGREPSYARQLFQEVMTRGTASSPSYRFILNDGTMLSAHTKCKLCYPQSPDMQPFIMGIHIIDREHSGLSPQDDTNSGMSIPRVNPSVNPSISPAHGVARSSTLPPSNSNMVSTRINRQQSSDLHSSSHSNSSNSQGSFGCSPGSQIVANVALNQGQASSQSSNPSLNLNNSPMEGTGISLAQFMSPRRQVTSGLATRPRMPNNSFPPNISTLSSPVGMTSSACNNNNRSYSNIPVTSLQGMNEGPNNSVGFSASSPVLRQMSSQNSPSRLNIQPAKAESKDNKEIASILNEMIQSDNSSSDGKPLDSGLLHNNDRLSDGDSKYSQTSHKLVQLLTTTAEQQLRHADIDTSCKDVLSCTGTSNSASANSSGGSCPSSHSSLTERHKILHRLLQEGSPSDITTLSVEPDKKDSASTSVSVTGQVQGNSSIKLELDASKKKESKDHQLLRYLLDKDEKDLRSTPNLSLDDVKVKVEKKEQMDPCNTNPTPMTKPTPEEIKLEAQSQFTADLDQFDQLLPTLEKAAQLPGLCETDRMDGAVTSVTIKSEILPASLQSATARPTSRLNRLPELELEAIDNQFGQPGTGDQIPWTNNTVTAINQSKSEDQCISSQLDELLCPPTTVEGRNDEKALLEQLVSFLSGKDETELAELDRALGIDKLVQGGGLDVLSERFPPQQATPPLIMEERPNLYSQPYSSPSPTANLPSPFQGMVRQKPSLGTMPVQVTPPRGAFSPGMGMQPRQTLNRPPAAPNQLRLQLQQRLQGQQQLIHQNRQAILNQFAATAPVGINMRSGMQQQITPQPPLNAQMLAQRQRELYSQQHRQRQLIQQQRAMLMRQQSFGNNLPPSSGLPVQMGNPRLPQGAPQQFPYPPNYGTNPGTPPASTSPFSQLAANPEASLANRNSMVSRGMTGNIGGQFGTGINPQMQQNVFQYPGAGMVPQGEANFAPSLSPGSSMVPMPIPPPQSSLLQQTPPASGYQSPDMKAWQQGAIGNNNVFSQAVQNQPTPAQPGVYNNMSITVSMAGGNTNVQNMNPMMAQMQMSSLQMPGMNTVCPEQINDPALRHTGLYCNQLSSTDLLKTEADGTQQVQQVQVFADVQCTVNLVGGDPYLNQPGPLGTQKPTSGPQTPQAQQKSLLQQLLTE
compound,measurement,setting,value
O=[N+]([O-])c1nn(-c2ccc3c(c2)OCCO3)[n+]([O-])c1Nc1ccc(Cl)cc1,IC50,[1],> 43.8 µM (not active)
same,IC50,[2],> 43.8 µM (not active)
same,EC50,[3],0.131 µM (active)
same,EC50,[4],> 60 µM (not active)
COc1ccccc1/C=C/C(=O)Nc1cccc(C(C)=O)c1,EC50,[5],> 50 µM (active)
CCn1c(=O)cc(SCC(=O)N2CCCCC2)c2ccccc21,EC50,[6],> 79.4 µM (inactive)
same,EC50,[7],> 79.4 µM (not active)
same,EC50,[8],> 79.4 µM (not active)
same,IC50,[9],> 80 µM (inactive)
COc1ccc(OC)c(S(=O)(=O)Nc2cccc3ccccc23)c1,IC50,[10],> 100 µM (not active)
same,IC50,[11],> 100 µM (inactive)
Cc1ccccc1CSc1nc(O)c2c[nH]nc2n1,IC50,Aminopeptidase N,65.2 µM (active)
O=C(O)COc1ccc(Br)cc1CP(=O)(c1ccccc1)c1ccccc1,IC50,Aminopeptidase N,49.3 µM (active)
Nc1ncncc1-c1ccc(Cl)cc1,EC50,[5],> 50 µM (active)
Cc1ccc(N=C(S)NCc2ccc(Cl)cc2)c(C)c1,IC50,[1],> 43.8 µM (not active)
same,IC50,[2],17.1 µM (not active)
O=C(CSc1nnc(NC(=O)c2ccccc2C(=O)O)s1)Nc1ccccc1Cl,IC50,[12],14 µM (active)
same,IC50,[13],9.42 µM (active)
c1cc(Cn2ccnc2)ccn1,IC50,[10],> 100 µM (not active)
same,IC50,[11],> 100 µM (inactive)
CC1=CC(C)(C)Nc2ccc(OC(=O)C(Cc3ccccc3)N3C(=O)c4ccccc4C3=O)cc21 (stereo not given),CC50,[14],> 50 µM (active)
same,EC50,[15],> 260 µM (inactive)
same,IC50,[9],> 80 µM (inactive)
O=C(N/N=C/c1cc(Cl)ccc1O)c1ccncc1,IC50,Aminopeptidase N,22.3 µM (active)
same,EC50,cells [16],18.1 µM (active)
same,EC50,cells [17],> 350 µM (not active)
same,IC50,Nonstructural protein 1,5.05 µM (active)
same,AC50,[18],8.98 µM (active)
Cc1[nH]c2ccccc2c1/C=N/Nc1nc(Nc2ccccc2)nc(N2CCOCC2)n1,CC50,[14],22.6 µM (active)
same,CC50,[19],24.1 µM (active)
same,IC50,[20],0.482 µM (active)
same,IC50,[9],66.7 µM (inactive)
same,CC50,Vero,3.33 µM (active)
COc1ccc(OC)c(S(=O)(=O)Nc2ccc3ncccc3c2)c1,IC50,[10],> 100 µM (not active)
same,IC50,[11],> 100 µM (inactive)

# Source: ChEMBL document CHEMBL1201862, “PubChem BioAssay data set” (2004)
